# In patent US20220144838A1, “Compounds as Inhibitors of Macrophage Migration Inhibitory Factor” (NANJING IMMUNOPHAGE BIOTECH CO., LTD., priority 2019, published 2022):
# Target: T1, MIF (Homo sapiens, UniProt P14174)
# T1 sequence (P14174 2-115 limits assumed): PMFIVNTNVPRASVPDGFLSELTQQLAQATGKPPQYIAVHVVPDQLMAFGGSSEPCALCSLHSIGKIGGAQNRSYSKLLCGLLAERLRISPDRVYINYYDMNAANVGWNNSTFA
# Test: MIF tautomerase assay using pHPP as substrate
# Type: biochemical
# Conditions: FIGS. 1-5; mean of multiple test results; read-out: pIC50 MIF tautomerase activity (converted)
# Procedure, shortened: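 Mean pIC50 derived from initial rates (absorbance progress-curve slopes) of MIF-catalyzed ketonic-to-enolic pHPP conversion, read as enol–borate complex. Reactions contained 1.5 mM substrate and 3 nM enzyme (final), 200 mM boric acid stock buffer, BSA and CHAPS, pH 6.0.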
row,IC50,SMILES
1,≤ 0.1 µM,"COc1ccc2c(cnn2-c2nc(N3CCN(c4ccc(O)cc4)CC3)nc3c2ncn3CC(=O)O)c1 [Example 51, 2-(2-(4-(4-hydroxyphenyl)piperazin-1-yl)-6-(5-methoxy-1H-indazol-1-yl)-9H-purin-9-yl)acetic acid]"

# Same assay, conditions: inhibition of the MIF enzyme in vitro; mean of multiple test results; read-out: Tautomerase Inhibition pIC50 (converted)
row,IC50,SMILES
1,0.01 to 0.0977 µM,"COc1ccc2c(cnn2-c2nc(N3CCN(c4ccc(O)cc4)CC3)nc3c2ncn3CC(=O)O)c1 [Example 51, 2-(2-(4-(4-hydroxyphenyl)piperazin-1-yl)-6-(5-methoxy-1H-indazol-1-yl)-9H-purin-9-yl)acetic acid]"
2,0.01 to 0.0977 µM,"COc1ncccc1-n1cnc2c(C)nc(N3CCN(c4ccc(O)cc4)CC3)nc21 [Example 62, 4-(4-(9-(2-methoxypyridin-3-yl)-6-methyl-9H-purin-2-yl)piperazin-1-yl)phenol]"
3,> 10 µM,"Nc1nc(N2CCC(O)(C#CCO)CC2)nc2c1ncn2-c1ccncc1 [Example 198, 1-(6-amino-9-(pyridin-4-yl)-9H-purin-2-yl)-4-(3-hydroxyprop-1-yn-1-yl)piperidin-4-ol]"
4,> 10 µM,"Nc1nc(N2CC(O)(c3cn[nH]c3)C2)nc2c1ncn2-c1ccncc1 [Example 199, 1-(6-amino-9-(pyridin-4-yl)-9H-purin-2-yl)-3-(1H-pyrazol-4-yl)azetidin-3-ol]"
5,> 10 µM,"OC1(c2cn[nH]c2)CN(c2ncc3ncn(-c4ccncc4)c3n2)C1 [Example 200, 3-(1H-pyrazol-4-yl)-1-(9-(pyridin-4-yl)-9H-purin-2-yl)azetidin-3-ol]"
6,> 10 µM,"Nc1nc(N2CC(O)(c3nccs3)C2)nc2c1ncn2-c1ccncc1 [Example 201, 1-(6-amino-9-(pyridin-4-yl)-9H-purin-2-yl)-3-(thiazol-2-yl)azetidin-3-ol]"
7,> 10 µM,"Nc1nc(N2CCC(O)(c3ccccc3)CC2)nc2c1ncn2-c1ccncc1 [Example 202, 1-(6-amino-9-(pyridin-4-yl)-9H-purin-2-yl)-4-phenylpiperidin-4-ol]"
8,> 10 µM,"Cc1cc(-n2cnc3c(C)nc(N4CCC(O)(c5ccc(O)cc5)CC4)nc32)ccn1 [Example 203, 4-(4-hydroxyphenyl)-1-(6-methyl-9-(2-methylpyridin-4-yl)-9H-purin-2-yl)piperidin-4-ol]"
9,0.01 to 0.0977 µM,"Cc1nc(N2CCC(O)(c3ccc(O)cc3)CC2)nc2c1ncn2-c1cccnc1 [Example 204, 4-(4-hydroxyphenyl)-1-(6-methyl-9-(pyridin-3-yl)-9H-purin-2-yl)piperidin-4-ol]"
10,0.1 to 0.977 µM,"CN(CC(=O)O)c1nc(N2CCC(O)(c3ccc(O)cc3)CC2)nc2c1ncn2-c1ccncc1 [Example 205, N-(2-(4-hydroxy-4-(4-hydroxyphenyl)piperidin-1-yl)-9-(pyridin-4-yl)-9H-purin-6-yl)-N-methylglycine]"
11,0.1 to 0.977 µM,"Cc1nc(N2CCC(O)(c3cccc(O)c3)CC2)nc2c1ncn2-c1ccncc1 [Example 206, 4-(3-hydroxyphenyl)-1-(6-methyl-9-(pyridin-4-yl)-9H-purin-2-yl)piperidin-4-ol]"
12,0.1 to 0.977 µM,"Oc1ccc(C2(O)CCN(c3nc(N4C[C@H](O)[C@@H](O)C4)c4ncn(-c5ccncc5)c4n3)CC2)cc1 [Example 207, (3S,4S)-1-(2-(4-hydroxy-4-(4-hydroxyphenyl)piperidin-1-yl)-9-(pyridin-4-yl)-9H-purin-6-yl)pyrrolidine-3,4-diol]"
13,0.1 to 0.977 µM,"Nc1nc(N2CCC(O)(c3ccc(O)cc3)CC2)nc2c1ncn2-c1cccnc1 [Example 208, 1-(6-amino-9-(pyridin-3-yl)-9H-purin-2-yl)-4-(4-hydroxyphenyl)piperidin-4-ol]"
14,1 to 9.77 µM,"Nc1nc(N2CCC(O)(c3ccc(F)cc3)CC2)nc2c1ncn2-c1cccnc1 [Example 209, 1-(6-amino-9-(pyridin-3-yl)-9H-purin-2-yl)-4-(4-fluorophenyl)piperidin-4-ol]"
15,1 to 9.77 µM,"Nc1nc(N2CCC(O)(c3ccc(F)cc3)CC2)nc2c1ncn2-c1ccncc1 [Example 210, 1-(6-amino-9-(pyridin-4-yl)-9H-purin-2-yl)-4-(4-fluorophenyl)piperidin-4-ol]"
16,1 to 9.77 µM,"Oc1ccc(C2(O)CCN(c3nc(N4CCCCC4)c4ncn(-c5ccncc5)c4n3)CC2)cc1 [Example 211, 1 4-(4-hydroxyphenyl)-1-(6-(piperidin-1-yl)-9-(pyridin-4-yl)-9H-purin-2-yl)piperidin-4-ol]"
17,1 to 9.77 µM,"NC(=O)c1ccc(C2(O)CN(c3nc(N)c4ncn(-c5ccncc5)c4n3)C2)cc1 [Example 212, 4-(1-(6-amino-9-(pyridin-4-yl)-9H-purin-2-yl)-3-hydroxyazetidin-3-yl)benzamide]"

row,IC50,SMILES
1,> 10 µM,"Nc1nc(N2CC(O)(c3ccns3)C2)nc2c1ncn2-c1ccncc1 [Example 213, 1-(6-amino-9-(pyridin-4-yl)-9H-purin-2-yl)-3-(isothiazol-5-yl)azetidin-3-ol]"
2,> 10 µM,"Nc1nc(N2CC(O)(c3ccc(CO)cc3)C2)nc2c1ncn2-c1ccncc1 [Example 214, 1-(6-amino-9-(pyridin-4-yl)-9H-purin-2-yl)-3-(4-(hydroxymethyl)phenyl) azetidin-3-ol]"
3,> 10 µM,"Cc1nc(N2CCC(O)(c3ccc(O)cc3)CC2)nc2c1ncn2CC(=O)O [Example 215, 2-(2-(4-hydroxy-4-(4-hydroxyphenyl)piperidin-1-yl)-6-methyl-9H-purin-9-yl)acetic acid]"
4,0.01 to 0.0977 µM,"O=C(O)Cn1cnc2c(-n3ncc4ccccc43)nc(N3CC(O)(c4ccc(O)cc4)C3)nc21 [Example 216, 2-(2-(3-hydroxy-3-(4-hydroxyphenyl)azetidin-1-yl)-6-(1H-indazol-1-yl)-9H-purin-9-yl)acetic acid]"
5,0.01 to 0.0977 µM,"O=C(O)CCCCn1cnc2c(-n3ncc4ccccc43)nc(N3CCC(O)(c4ccc(O)cc4)CC3)nc21 [Example 217, 5-(2-(4-hydroxy-4-(4-hydroxyphenyl)piperidin-1-yl)-6-(1H-indazol-1-yl)-9H-purin-9-yl)pentanoic acid]"
6,0.1 to 0.977 µM,"Oc1ccc(C2(O)CCN(c3nc(Nc4ccncc4)c4nc[nH]c4n3)CC2)cc1 [Example 219, 4-(4-hydroxyphenyl)-1-(6-(pyridin-4-ylamino)-9H-purin-2-yl)piperidin-4-ol]"
7,> 10 µM,"CN(c1ccncc1)c1nc(N2CCC(O)(c3ccc(O)cc3)CC2)nc2[nH]cnc12 [Example 220, 4-(4-hydroxyphenyl)-1-(6-(methyl(pyridin-4-yl)amino)-9H-purin-2-yl)piperidin-4-ol]"
8,0.1 to 0.977 µM,"O=C(O)Cn1cnc2c(-n3ncc4ccccc43)nc(N3CC(O)(c4ccccc4)C3)nc21 [Example 221, 2-(2-(3-hydroxy-3-phenylazetidin-1-yl)-6-(1H-indazol-1-yl)-9H-purin-9-yl)acetic acid]"
9,0.1 to 0.977 µM,"C#CCn1cnc2c(-n3ncc4ccccc43)nc(N3CCC(O)(c4ccc(O)cc4)CC3)nc21 [Example 222, 1-(6-(1H-indazol-1-yl)-9-(prop-2-yn-1-yl)-9H-purin-2-yl)-4-(4-hydroxyphenyl)piperidin-4-ol]"
10,0.1 to 0.977 µM,"O=C(O)Cn1cnc2c(-n3ncc4ccccc43)nc(N3CCC(O)(c4ccc(F)cc4)CC3)nc21 [Example 223, 2-(2-(4-(4-fluorophenyl)-4-hydroxypiperidin-1-yl)-6-(1H-indazol-1-yl)-9H-purin-9-yl)acetic acid]"
11,1 to 9.77 µM,"OCCn1cnc2c(-n3ncc4ccccc43)nc(N3CCC(O)(c4ccc(F)cc4)CC3)nc21 [Example 224, 4-(4-fluorophenyl)-1-(9-(2-hydroxyethyl)-6-(1H-indazol-1-yl)-9H-purin-2-yl)piperidin-4-ol]"
12,1 to 9.77 µM,"OCCn1cnc2c(-n3ncc4ccccc43)nc(N3CC(O)(c4ccccc4)C3)nc21 [Example 225, 1-(9-(2-hydroxyethyl)-6-(1H-indazol-1-yl)-9H-purin-2-yl)-3-phenylazetidin-3-ol]"
13,> 10 µM,"Nc1nc(N2CCN(c3ccc(O)cc3)CC2)nc2c(-c3ccncc3)c[nH]c12 [Example 226, 4-(4-(4-amino-7-(pyridin-4-yl)-5H-pyrrolo[3,2-d]pyrimidin-2-yl)piperazin-1-yl)phenol]"
14,> 10 µM,"Nc1nc(N2CCCN(c3ccccc3)CC2)nc2c1ncn2-c1ccncc1 [Example 227, 2-(4-phenyl-1,4-diazepan-1-yl)-9-(pyridin-4-yl)-9H-purin-6-amine]"
15,0.1 to 0.977 µM,"Oc1ccc(N2CCN(c3nc(-n4ncc5ccccc54)c4ncn(C5CCOC5)c4n3)CC2)nc1 (stereo not shown) [Example 228, 6-(4-(6-(1H-indazol-1-yl)-9-(tetrahydrofuran-3-yl)-9H-purin-2-yl)piperazin-1-yl)pyridin-3-ol]"
16,0.01 to 0.0977 µM,"Cc1nc(N2CCN(c3ccc(O)cc3)CC2)nc2c1ncn2-c1cccnc1 [Example 229, 4-(4-(6-methyl-9-(pyridin-3-yl)-9H-purin-2-yl)piperazin-1-yl)phenol]"
17,1 to 9.77 µM,"Nc1nc(N2CCN(c3ccc(O)cn3)CC2)nc2c1ccn2-c1ccncc1 [Example 230, 6-(4-(4-amino-7-(pyridin-4-yl)-7H-pyrrolo[2,3-d]pyrimidin-2-yl)piperazin-1-yl)pyridin-3-ol]"

# Target: T2, biotinylated human MIF / MIF receptor ectodomain (sCD74) (Homo sapiens, UniProt P14174)
# T2 construct: made in house
# T2 sequence (P14174 2-115 limits assumed): T1 sequence (P14174 2-115 limits assumed)
# Test: MIF-CD74 binding assay
# Conditions: FIGS. 9-12; read-out: pIC50 MIF-CD74 binding (converted)
# Description: The assay measures the ability of a compound to inhibit the binding of MIF with its receptor CD74 in vitro. 96-well plates were coated with recombinant MIF receptor ectodomain (sCD74=CD7473-232), washed 4 times, and blocked with Superblock (Pierce Biotechnology) at 4° C. overnight. Test compounds, which were used at a top final assay concentration of 33.3 μM, diluted in assay medium with 1:3 dilutions to produce 10 point concentration responses, were pre-incubated with biotinylated human MIF (2 ng/μl) (Roche Applied Sciences) prepared recombinantly for 30 minutes at room temperature. The mixtures then were added to wells for overnight incubation at 4° C. The wells were washed 4 times and strepavidin-conjugated alkaline phosphatase (R&D Systems) was added for one hour incubation at room temperature. After additional washes, 60 μl/well of p-nitrophenyl phosphate (Sigma) substrate was added. Absorbance at 405 nm was plotted as percent A405 relative to wells containing biotinylated human MIF alone. Each plot represented at least three independently performed assays, and each data point depicts a SEM≤10%. Each test compound was analyzed over 10-12 concentrations, and over a ˜500-fold concentration range.
# Selected examples were tested in the MIF-CD74 binding assay. The data mentioned below represents a mean pIC50 value of multiple test results. It is understood that the data illustrated below may have reasonable variation depending on the specific conditions and procedures used by the person conducting the testing.
row,IC50,SMILES
1,8.91 µM,"COc1ccc2c(cnn2-c2nc(N3CCN(c4ccc(O)cc4)CC3)nc3c2ncn3CC(=O)O)c1 [Example 51, 2-(2-(4-(4-hydroxyphenyl)piperazin-1-yl)-6-(5-methoxy-1H-indazol-1-yl)-9H-purin-9-yl)acetic acid]"
2,26.3 µM,"COc1ncccc1-n1cnc2c(C)nc(N3CCN(c4ccc(O)cc4)CC3)nc21 [Example 62, 4-(4-(9-(2-methoxypyridin-3-yl)-6-methyl-9H-purin-2-yl)piperazin-1-yl)phenol]"
